According to patent publication US8211875B2, “Local treatment of neurofibromas” (Nexgenix Pharmaceuticals Inc, priority 2005, dated 2012):

How the values were obtained:
[1] = tested on: Fresh human dermal neurofibroma; experiment: Ex vivo tumor explant assay, histological score; format: cell-based; conditions: compound added day 1, collected day 3, criterion “+” or more
Procedure: The efficacy of the compound/agent was tested in an ex vivo tumor explant model as follows. Fresh human dermal neurofibroma was cut into eight small pieces and cultured on standard cell culture plates with medium containing DMEM/F12, 10% FBS, heregulin and forskolin. The pieces were divided into treatment and control groups. Compound at different doses was added to the medium on day 1. No compound was added in the negative control group. All tumor pieces were collected on day 3 and processed for histology by formalin fixation and paraffin embedding. Tissue sections were cut and stained with hematoxylin-eosin for histological analysis. The histological analysis of the paired explant samples was conducted blindly. Three histological parameters were used to score the samples from “−” to “+++”: 1) overall tissue integrity; we evaluate tissue integrity by comparing the cellularity of treated samples to the negative control samples. The low cellularity area was defined as >30% less nucleus than the similar area on the control sample. The photograph of each sample at 40× under a bright field microscopy was take using MagnaFire digital camera (Optronics, USA) and stored in computer. The low cellularity areas in the pictures were measured using Photoshop and calculated as Length×Width, and then expressed as a percentage over the total area of the sample. Overall tissue integrity was scored using 0 to 2+ score. In short, good tissue integrity is scored 0 (<5%), 1+ indicates medium tissue integrity (5-25%), 2+ low tissue integrity (>25%). Only 2+ cases were regarded as positive “+” for the final total score; 2) cell death—slides were evaluated by bright field microscopy. At least 100 cells per view were counted. Cell death was scored semi-quantitatively using the 0 to 3+ score. The absence of condensed or fragmented nucleus is scored 0, 1+ indicates the lowest level of detectable cell death (<10%), 2+ moderate cell death ([…]), and 3+ high cell death (>30%). All 2+ and 3+ cases were regarded as positive “+” for the final total score; and 3) effect on vasculatures.—slides were evaluated by bright field microscopy. The effect on vasculature in treated samples was determined by comparing with the vasculatures in control negative samples. At least 20 vasculatures per sample were counted. Effect on vasculatures was scored semi-quantitatively using the […]. In short, absence or the lowest level of damaged vasculature is scored 0 (<5%), 1+ indicates of some damaged vasculature (5-25%), 2+ high (>25%). All 1+ and 2+ cases were regarded as positive “+” for the final total score. Final histological score was the sum of the scores of the above three parameters, expressed as “−” to “+++”. Any compound with a histological score of “+” or more will be potential good candidates for local treatment of neurofibromas.

[2] = Cell proliferation assay (ATPlite) in a panel of NF1 related cell lines; format: cell-based, human and mouse; conditions: 72 h; read-out: IC50 (concentration required for inhibition of cell proliferation by 50%)
Procedure: Several physiologically relevant cells or cell lines were employed to measure compound potency in cell proliferation assays. These cells include: (1) NF1-deficient human malignant peripheral nerve sheath tumor (MPNST) cells, (2) Nf1^−/− mouse embryonic Schwann cells, and (3) Nf1- and p53-deficient mouse cell. […] All the other cells are grown in DMEM with 10% fetal bovine serum (FBS).
Various concentrations of each compound/agent to be tested were added to the growing media and the cells were then cultured for 3 days. […] Viable cells were measured by detecting luminescence generated from reaction of ATPlite solution and the ATP in the cells.

cutaneous neurofibromas = experiment: Proof-of-concept intralesional administration study in NF1 subjects; format: in vivo, human; conditions: intralesional injection once weekly for 4 weeks, all controls showed no change
Excerpt: The study was a proof-of-concept, prospective, safety and efficacy study of the effect of intralesionally administered drugs given once a week to 3 target cutaneous neurofibromas for 4 consecutive weeks. Six subjects were enrolled. […] All subjects were from 18 to 65 years of age, inclusive. All subjects otherwise were in good health, or had stable concomitant medical conditions appropriately managed by a primary care physician. […] After screening and enrollment, all subjects received a defined volume (based on the size of the lesion) of intralesional drug once weekly into 3 target cutaneous neurofibromas that are 0.5 to 1.5 cm in diameter, inclusive, in its largest dimension. Each target cutaneous neurofibroma was different in size, with one 0.5 to 0.8 cm in diameter, a second between 0.81 to 1.2 cm in diameter, and a third 1.21 to 1.5 cm in diameter. Concomitantly, three control cutaneous neurofibromas found on the torso and/or appendages of the same range in sizes received sterile normal saline. All lesions prior to injection were locally anesthetized with lidocaine 1% and epinephrine 1:100,000. […] Assessment included the exact measured dimensions (in two axes) of the […] assessed lesions. […]

| Compound | Final histological score (tissue integrity, cell death, effect on vasculatures) [1] | IC50 [2] [µM] | tumors injected showing partial or complete elimination of the dermal neurofibroma (cutaneous neurofibromas) [%] |
| --- | --- | --- | --- |
| O=c1[nH]cc(F)c(=O)[nH]1 [5-fluorouracil] | + | ≤ 10 |  |
| C=CCNC1=C2C[C@@H](C)C[C@H](OC)[C@H](O)[C@@H](C)/C=C(\C)[C@H](OC(N)=O)[C@@H](OC)/C=C\C=C(/C)C(=O)NC(=CC1=O)C2=O [17-AAG, 17-(Allylamino)-17-demethoxygeldanamycin] | + | ≤ 10 |  |
| CC[C@@]1(O)C(=O)OCc2c1cc1n(c2=O)Cc2cc3ccccc3nc2-1 [Camptothecin] |  | ≤ 10 |  |
| Nc1nc(Cl)nc2c1ncn2[C@H]1C[C@H](O)[C@@H](CO)O1 [Cladribine] |  | ≤ 10 |  |
| O=C([O-])Cc1ccccc1Nc1c(Cl)cccc1Cl.[Na+] [Diclofenac] | + |  | 48 |
| C[C@H]1c2cccc(O)c2C(=O)C2=C(O)[C@]3(O)C(=O)C(C(N)=O)=C(O)[C@@H](N(C)C)[C@@H]3[C@@H](O)[C@@H]21.Cl [Doxycycline] |  | ≤ 10 | 89 |
| O=C(O[C@@H]1Cc2c(O)cc(O)cc2O[C@@H]1c1cc(O)c(O)c(O)c1)c1cc(O)c(O)c(O)c1 [EGCG, (−)-Epigallocatechin Gallate] |  | ≤ 10 |  |
| CC1=C(/C=C/C(C)=C/C=C/C(C)=C/C(=O)Nc2ccc(O)cc2)C(C)(C)CCC1 [Fenretinide] | + | ≤ 10 |  |
| COc1cc2ncnc(N3CCN(C(=S)NCc4ccc5c(c4)OCO5)CC3)c2cc1OC [KN2941, 4-(6.7-dimethoxy-4-quinazolinyl)-N-(3,4-methylenedioxybenzyl)-1-piperazinethiocarboxamide] |  | ≤ 10 |  |
| O=c1cc(N2CCOCC2)oc2c(-c3ccccc3)cccc12 [LY294002, 2-(4-Morpholinyl)-8-phenyl-4H-1-benzopyran-4-one] |  | ≤ 10 |  |
| COC(=O)Nc1nc2cc(C(=O)c3ccccc3)ccc2[nH]1 [Mebendazole] | + | ≤ 10 |  |
| COc1cc([C@@H]2c3cc4c(cc3[C@H](O)[C@H]3COC(=O)[C@H]23)OCO4)cc(OC)c1OC [Podophyllotoxin] | + | ≤ 10 |  |
| CCN(CC)CCNC(=O)c1c(C)[nH]c(/C=C2\C(=O)Nc3ccc(Cl)cc32)c1C [SU11652, 5-[(Z)-(5-Chloro-2-oxo-1,2-dihydro-3H-indol-3-ylidene)methyl]-N-[2-(diethylamino)ethyl]-2,4-dimethyl-1H-pyrrole-3-carboxamide] |  | ≤ 10 |  |
| NC(=O)c1cn([C@@H]2O[C@H](CO)C(O)C2O)c2ncnc(N)c12 (stereo partly shown) [Sangivamycin] | + | ≤ 10 |  |
| S=P(N1CC1)(N1CC1)N1CC1 [Thiotepa] | + | ≤ 10 |  |
| CC(/C=C/C(=O)NO)=C\[C@@H](C)C(=O)c1ccc(N(C)C)cc1 [Tricostatin A] | + | ≤ 10 |  |
| Nc1ncnc2c1ccn2[C@@H]1O[C@H](CO)[C@@H](O)[C@H]1O [Tubercidin] | + | ≤ 10 |  |
| N#CC(=C(/N)Sc1ccccc1N)/C(C#N)=C(\N)Sc1ccccc1N [U0126, 1,4-Diamino-2,3-dicyano-1,4-bis(2-aminophenylthio)-butadiene] |  | ≤ 10 |  |
| CCCC(CCC)C(=O)O [Valproic acid] | + |  |  |
| COc1cc(/C=C/C(=O)CC(=O)/C=C/c2ccc(O)c(OC)c2)ccc1O [curcumin, Curcumin] |  | ≤ 10 |  |
| CCCCCCCCCCCCCCCCOP(=O)([O-])OCC[N+](C)(C)C [miltefosine, Miltefosine] |  | ≤ 10 |  |
| C[C@@H]1C[C@H]2O[C@@H]2/C=C\C=C\C(=O)Cc2c(Cl)c(O)cc(O)c2C(=O)O1 [radicicol, Radicicol] | + | ≤ 10 |  |
| CO[C@H]1C[C@@H]2CC[C@@H](C)[C@@](O)(O2)C(=O)C(=O)N2CCCC[C@H]2C(=O)O[C@H]([C@H](C)C[C@@H]2CC[C@@H](O)[C@H](OC)C2)CC(=O)[C@H](C)/C=C(\C)[C@@H](O)[C@@H](OC)C(=O)[C@H](C)C[C@H](C)/C=C/C=C/C=C/1C [rapamycin, Rapamycin] |  | ≤ 10 |  |
| CC1=C(/C=C/C(C)=C/C=C/C(C)=C/C(=O)O)C(C)(C)CCC1 [retinoic acid, 3,7-dimethyl-9-(2,6,6-trimethyl-1-cyclohexenyl)-nona-2,4,6,8-tetraenoic acid] |  | ≤ 10 |  |
| Bleomycin | + |  |  |
